# Results as given in patent US6600012B1, “Lipid-modified muc-1 derivatives” (Biomira, Inc., priority 1997, dated 2003).
# Assays:
# [1] = system: T2 cells loaded with MUC-1 synthetic peptides; assay: Cytotoxic T lymphocyte assay (51Cr release) against peptide loaded T2 targets, Example 2; format: cell-based, human; settings: T-cells of three HLA.A2+ donors primed with liposomal 25 aa MUC-1 lipopeptide, 5 h 51Cr release, peptide 200 μM
# Procedure: Cytotoxic T lymphocyte assays. For the CTL assay, three (HLA.A2^+) normal donors' PBLs were used. The T-cells were grown for two weeks in bulk cultures as described above. At the end of two weeks, live T-cells were harvested from flasks and counted. T2 cells used as CTL targets were loaded overnight with various MUC-1 synthetic peptides at 200 μM in presence of exogenous β2m. Houbiers et al., Eur. J. Immunol 23:2072-2077 (1993); Stauss et al., Proc. Natl. Acad. Sci. U.S.A. 89:7871-7875 (1992). These peptide loaded T2 target cells were then loaded with ^51Cr (using NaCrO4) for 90 min and washed extensively. CTL assays were performed as previously described. Agrawal et al., supra. Percent specific killing was calculated as: experimental release—spontaneous release/maximum release—spontaneous release×100. The effector versus target ratio was used as (1, 10, 50, 100 and 150). Each group was set up in four replicate and mean percent specific killing was calculated. As negative control OVA peptide […] loaded target T2 cells were used in the cytotoxic assay and percent specific killing of […] loaded targets was subtracted from each data point to obtain MUC-1 peptide specific percent specific killing.
# We performed in vitro CTL assays in order to determine whether the MUC-1 peptides shown to be capable of binding to HLA.A2 on T2 mutant cells can be recognized as CTL epitopes in the context of MHC class I HLA.A2 molecules on target cells. T-cells from PBLs of three HLA.A2^+ donors were primed in vitro against MUC-1 antigen using a lipopeptide derivative of 25 amino acid MUC-1 peptide encapsulated in liposome pulsed autologous PBLs as APCs. The stimulated T-cells were harvested following two weeks in vitro culture (with 2 weekly restimulations) and tested for their cytotoxic activity against MUC-1 derived synthetic peptide (9 mers and 7 mer) loaded T2 cells as target in a 5 h ^51Cr release assay (FIG. 6). […] The targets loaded with 7 mer TSA . . . peptide were weakly killed by donor 2 at higher E/T ratios.
# [2] = target: T1, HLA.A2 on T2 mutant cells (Homo sapiens, UniProt P04439, D140Y/D185E/D98H/E176V/E277Q/G131W/G231S/I119V/I121R/I166T/I218V/L300P/L318F/N151K/N90K/P208A/P217A/Q86G/Q94H/R138H/R169H/T345S); assay: T2 feeding experiment and FACS analysis (HLA.A2 upregulation, MA2.1 staining), Example 2; format: cell-based
# [3] = system: T cells stimulated with autologous PBLs loaded with liposomes containing BLP-25; assay: Cytokine ELISA of supernatant of microtiter wells in the proliferation assay; format: cell-based, human; settings: soluble peptide, 100 ug; T cells pre-stimulated with BLP-25 liposomes 100 ug; 6th day of culture
# Procedure: T-Cell Proliferation Assay T-cells (5×10^4-1×10^5) obtained at the end of 14-16 days of culture, as described above, were incubated in the presence of various antigen-containing liposomes, soluble BP24, soluble BLP-24M, loaded or unloaded autologous liposomes, and mitomycin C treated APCs (5×10^4-10^5), in a total volume of 200 μL in AIM-V medium, in 96-well flat-bottom tissue culture plates—for a period of 5 days at 37° C., 7% CO2 and moisture. Each group was cultured in 5 replicate wells. At the end of 5 days, 100 μL of culture supernatant was collected from each well and tested for the presence of γ-IFN or IL-4 by ELISA, as described below. After collecting the supernatant for cytokines, 1 μCi^3H-Tdr (Amersham Canada Limited, Oaksville, Ontario) was added into each well and incubated overnight. Incorporation of ^3H-Tdr into DNA of proliferating cells was measured after harvesting the plates and counting in the matrix beta counter. […]
# For the γ-IFN assay, 96-well Nunc ELISA plates were coated overnight at 4° C. with mouse anti-human γ-IFN monoclonal antibody (Genzyme, Cambridge, Mass.) in NaHCO3 buffer (0.1 M, pH 9.5). […] At this time, the plates were read in the ELISA reader (Molecular Devices Corporation, Menlo Park, Calif.) in kinetic mode [Molecular Thermomax dual wavelength (405-490 nm)]. […]
# [4] = system: T-cells from PBLs of normal donors; assay: T-cell proliferation assay (3H-Tdr incorporation) of T-cells stimulated twice with liposomal antigen loaded autologous APCs; format: cell-based, human; settings: T-cells stimulated twice in two weeks with BLP-25 liposome loaded autologous PBLs; antigen presented on autologous APCs
# Procedure: T-cell Culture in Bulk For T-cell enrichment, 30-50×10^6 PBLs were suspended in 1 mL AIM-V media and loaded on media pre-conditioned 5 mL nylon wool columns (Robins Scientific, Sunnyvale, Calif.). The loaded nylon wool columns were incubated at 37° C. for 45 minutes and then the non-adhering T-cells were eluted by washing with warm (37° C.) AIM-V media. Initially, the bulk culture was started in a 25 cm^2 tissue culture sterile flask (Corning Glass, Corning, N.Y.). 10^7 T-cells were cultured in the presence of 10^7 antigen loaded, gamma-irradiated autologous PBLs in a total volume of 10 mL in AIM-V media for 16-24 hours, at which time the culture was fed with human rIL-7 (10 μg/mL) and human rIL-12 (100 pg/ml), and left for 6-8 more days. At the end of the 7-10 days of culture, surviving t-cells were collected and re-stimulated with autologous APCs loaded with liposomal antigen. After two consecutive cycles of re-stimulation (14-16 days), the T-cells were collected, and counted. The supernatant was collected from bulk cultures at 14 days for cytokine screening and kept frozen at −80° C. until used for the assay. Repeated freeze/thaw was prevented. […] Incorporation of ^3H-Tdr into DNA of proliferating cells was measured after harvesting the plates and counting in the matrix beta counter. […]
# [5] = target: T1, HLA.A2 on T2 mutant cells; assay: MUC-1 peptide-mediated upregulation of HLA.A2 expression on T2 cells, Example 1; format: cell-based; settings: FIG. 6A
# From the text: FIG. 6A: Upregulation of HLA.A2 expression on T2 mutant cells by MUC-1 peptides […] (SEQ ID NO: 1) and […] (SEQ ID NO: 2). […] was used as a positive control (SEQ ID NO: 1) and H-2Kb (61-69) peptide (SEQ ID NO: 3) was used as negative control for HLA-A2 upregulation. The x-axis represents fluorescence intensity and the y-axis represents the cell number. Markers M1 and M2 were set to visually examine the increase expression of HLA.A2. Mean channel intensity (MCI) is shown in each histogram.
# Cytotoxic T lymphocyte assays. For the CTL assay, three (HLA.A2^+) normal donors' PBLs were used. The T-cells were grown for two weeks in bulk cultures as described above. At the end of two weeks, live T-cells were harvested from flasks and counted. The targets were mutant T2 cells. Houbiers et al., Eur. J. Immunol 23:2072-2077 (1993); Stauss et al., Proc. Natl. Acad. Sci. U.S.A. 89:7871-7875 (1992). The MUC-1 peptide-mediated upregulation of HLA.A2 expression on T2 cells was examined using the MUC-1 nine-mer peptides (SEQ ID NO: 25) […] and […] using known methods. Townsend et al., Nature 346:476 (1989). […] Percent specific killing was calculated as: experimental release—spontaneous release/maximum release—spontaneous release×100. […] Each group was set up in four replicate and mean percent specific killing was calculated.
# MAb BCP8 = assay: Competitive inhibition of binding of MAb BCP8 to class I MHC isolated MUC-1 peptides (ELISA); settings: synthetic peptide 0-10 μM; MCF-7 derived fraction (FIG. 9)
# Procedure: Competitive inhibition of binding of MAb BCP8 to class I MHC isolated putative MUC-1 peptide motifs by synthetic MUC-1 peptides. To show the specificity of binding of the BCP8 antibody to the peptides isolated from MCF-7, a fraction eluting at 19 min after secondary HPLC was diluted ⅙ with PBS and coated on microtiter wells overnight, then blocked as described above. The wells were incubated with 2 ng of BCP8 in 100 μl ELISA diluent, containing also amounts of peptide varying from 0-10 μM. Peptides used in this experiment were the 9 mers (SEQ ID NO: 3), […] and […] (SEQ ID NO: 17), and the 16 mer (SEQ ID NO: 15) […]. The ELISA was then processed as described above.
substance,measurement,setting,value
"TSAPDTR [MUC-1 7 mer, class I-associated peptide]",specific killing of T2 targets loaded with the peptide,[1],weakly killed
same,"δMCI, HLA.A2 expression on T2 cell surface",[2]; peptide in excess at 50 μM/well,2
"DSTSSPVHSGTSSPATSAPEDSTS [BP-24M, mouse MUC-1, 24-amino acid peptide, control]",IFN-γ (pg/ml) ± S.D.,[3],193 ± 79 pg/mL
same,IL-4 (pg/ml) ± S.D.,[3],<31.00 pg/mL
same,T-cell proliferative response against the test antigen,[4],no proliferative T-cell response
TSAPDTRPA [MUC-1 tandem repeat 9 mer],specific killing of T2 targets loaded with the peptide,[1],performed exceptionally well
same,specific killing of T2 targets loaded with the peptide,[1]; listed as 9 mers TSA . . .,specifically killed to the highest degree
same,upregulation of class I expression on T2 cells,[2]; FIG. 11 and repeat experiments,strong upregulation of class I expression
"SIINFEKL [8-mer ovalbumin (OVA) peptide, negative control in CTL assay, reference compound]",upregulation of HLA.A2 expression on T2 cells,[5],strongly upregulates HLA.A2 expression
STAPPAHGV,upregulation of HLA.A2 expression on T2 cells,[5],higher upregulation of HLA.A2 expression on T2 cells than did
GVTSAPDTR [MUC-1 tandem repeat 9 mer],inhibition of binding of BCP8 to the isolated MUC-1 peptides,MAb BCP8,did not inhibit binding
SAPDTRPAP [MUC-1 tandem repeat 9 mer],specific killing of T2 targets loaded with the peptide,[1],specifically killed to the highest degree
same,% Change in mean channel intensity,"[2]; T2 cell assay, HLA.A2 expression (MA2.1 staining)",48%
